system: HCV genotype 1a replicon; test: HCV genotype 1a replicon assay (NS3 protease activity readout); assay type: cell-based, hepatitis C virus; details: HCV genotype 1a replicon
In short: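 EC50 values came from a 4-parameter robust fit of fluorescence (ex 340, em 509 nm) produced by NS3-specific protease in lysates, assayed with 15 μM FRET substrate for 20 min at 37° C, after 48 or 72 hours of compound exposure (0.5% DMSO) of Huh7.5-derived APC89 genotype 1a replicon cells.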

Row | SMILES | Genotype 1a
1 | CCCCC(=O)N1CCN(c2ccc(C(=O)Nc3cc(OC(F)(F)F)c(-c4ccc(-c5c[nH]c([C@@H]6C[C@H](C)CN6C(=O)[C@@H](NC(=O)OC)C(C)C)n5)cc4)cc3Cl)cn2)[C@H](C)C1 [Example 1-71] | C (C represents pEC50 between and 9 and about 10, (EC50 between 1 nM and 0.1 nM))
2 | COC(=O)NC(C(=O)N1CC(C)CC1c1nc(-c2ccc(-c3ccc(NC(=O)c4ccc(N5CCN(C(=O)C(C)(C)CO)CC5C)nc4)cc3OC(F)(F)F)cc2)c[nH]1)C1CCOCC1 (stereo not shown) [Example 13-32] | D (D represents pEC50>10 (EC50<0.1 nM))
3 | COC(=O)N[C@H](C(=O)N1C[C@@H](OC)C[C@H]1c1nc(-c2ccc(-c3cc(Cl)c(NC(=O)c4ccc(N5C[C@H](C)N(C(=O)C(C)(C)CO)C[C@H]5C)nc4)cc3OC(F)(F)F)cc2)c[nH]1)C1CCOCC1 [Example 28-5] | D (D represents pEC50>10 (EC50<0.1 nM))
4 | COC(=O)N[C@H](C(=O)N1C[C@@H](C)C[C@H]1c1nc(-c2ccc(-c3ccc(C(=O)Nc4ccc(N5C[C@H](C)N(C(=O)[C@@H](C)NC(C)=O)C[C@H]5C)nc4)cc3OC(F)(F)F)cc2)c[nH]1)C(C)C [Example 4-28] | D (D represents pEC50>10 (EC50<0.1 nM))
5 | COC(=O)N[C@H](C(=O)N1C[C@@H](C)C[C@H]1c1nc(-c2ccc(-c3ccc(C(=O)Nc4ccc(N5C[C@H](C)N(C(=O)C(C)(C)NC(=O)C6CC6)C[C@H]5C)nc4)cc3OC(F)(F)F)cc2)c[nH]1)C(C)C [Example 4-39] | C (C represents pEC50 between and 9 and about 10, (EC50 between 1 nM and 0.1 nM))
6 | COC(=O)N[C@H](C(=O)N1C[C@@H](OC)C[C@H]1c1nc(-c2ccc(-c3ccc(NC(=O)c4ccc(N5CCN(C(=O)C(C)(C)CO)C[C@H]5C)nc4)cc3OC(F)(F)F)cc2)c[nH]1)C(C)C [Example 27-7] | D (D represents pEC50>10 (EC50<0.1 nM))
7 | COC(=O)N[C@H](C(=O)N1C[C@@H](OC)C[C@H]1c1nc(-c2ccc(-c3cc(Cl)c(NC(=O)c4ccc(N5CCN(C(=O)NC(C)(C)C)C[C@H]5C)nc4)cc3OC(F)(F)F)cc2)c[nH]1)C1CCOCC1 [Example 28-12] | D (D represents pEC50>10 (EC50<0.1 nM))
8 | COC(=O)N[C@H](C(=O)N1C[C@@H](C)C[C@H]1c1nc(-c2ccc(-c3cc(Cl)c(NC(=O)c4ccc(N5CCN(C(=O)[C@H]6CCCN6C(=O)C6CC6)C[C@H]5C)nc4)cc3OC(F)(F)F)cc2)c[nH]1)C(C)C [Example 1-51] | D (D represents pEC50>10 (EC50<0.1 nM))
9 | COC(=O)NC(C(=O)N1CC(F)CC1c1nc(-c2ccc(-c3cc(Cl)c(NC(=O)c4ccc(N5CCN(C(=O)C(C)(C)CO)CC5C)nc4)cc3OC(F)(F)F)cc2)c[nH]1)C(C)C (stereo not shown) [Example 29-3] | C (C represents pEC50 between and 9 and about 10, (EC50 between 1 nM and 0.1 nM))
10 | CCCC(=O)N1CCN(c2ccc(C(=O)Nc3cc(OC(F)(F)F)c(-c4ccc(-c5c[nH]c([C@@H]6C[C@H](C)CN6C(=O)[C@@H](NC(=O)OC)C(C)C)n5)cc4)cc3Cl)cn2)[C@H](C)C1 [Example 1-68] | C (C represents pEC50 between and 9 and about 10, (EC50 between 1 nM and 0.1 nM))
11 | CNC(=O)N1C[C@@H](C)N(c2ccc(C(=O)Nc3cc(OC(F)(F)F)c(-c4ccc(-c5c[nH]c([C@@H]6C[C@H](C)CN6C(=O)[C@@H](NC(=O)OC)C6CC6)n5)cc4)cc3Cl)cn2)C[C@@H]1C [Example 7-3] | D (D represents pEC50>10 (EC50<0.1 nM))
12 | COC(=O)NC(C(=O)N1CC(C)CC1c1nc(-c2ccc(-c3ccc(NC(=O)c4ccc(N5CCN(C(=O)C(C)(C)C)CC5C)nc4)cc3OC(F)(F)F)cc2)c[nH]1)C(C)OC (stereo not shown) [Example 13-14] | D (D represents pEC50>10 (EC50<0.1 nM))
13 | COC(=O)N[C@H](C(=O)N1C[C@@H](C)C[C@H]1c1nc(-c2ccc(-c3cc(Cl)c(NC(=O)c4ccc(N5CCN(C(C)=O)C[C@H]5C)nc4)cc3OC(F)(F)F)cc2)c[nH]1)C(C)C [Example 1-66] | C (C represents pEC50 between and 9 and about 10, (EC50 between 1 nM and 0.1 nM))
14 | CCC(=O)N1CCC[C@@H]1C(=O)N1CCN(c2ccc(C(=O)Nc3cc(OC(F)(F)F)c(-c4ccc(-c5c[nH]c([C@@H]6C[C@H](C)CN6C(=O)[C@@H](NC(=O)OC)C(C)C)n5)cc4)cc3Cl)cn2)[C@H](C)C1 [Example 1-48] | D (D represents pEC50>10 (EC50<0.1 nM))
15 | COC(=O)N[C@H](C(=O)N1C[C@@H](OC)C[C@H]1c1nc(-c2ccc(-c3cc(Cl)c(NC(=O)c4ccc(N5CCN(C(=O)C(C)(C)CO)C[C@H]5C)nc4)cc3C(F)(F)F)cc2)c[nH]1)C1CCCCC1 [Example 19-15] | D (D represents pEC50>10 (EC50<0.1 nM))
16 | COC(=O)N[C@H](C(=O)N1C[C@@H](C)C[C@H]1c1nc(-c2ccc(-c3cc(F)c(NC(=O)c4ccc(N5CCN(C(=O)[C@]6(C)CCCN6)C[C@H]5C)nc4)cc3OC(F)(F)F)cc2)c[nH]1)C(C)C [Example 1-27] | C (C represents pEC50 between and 9 and about 10, (EC50 between 1 nM and 0.1 nM))
17 | CC[C@H](C)C(=O)N1CCN(c2ccc(C(=O)Nc3cc(OC(F)(F)F)c(-c4ccc(-c5c[nH]c([C@@H]6C[C@H](C)CN6C(=O)[C@@H](NC(=O)OC)C(C)C)n5)cc4)cc3Cl)cn2)[C@H](C)C1 [Example 1-69] | D (D represents pEC50>10 (EC50<0.1 nM))
18 | COC(=O)N[C@H](C(=O)N1C[C@@H](C)C[C@H]1c1nc(-c2ccc(-c3cc(F)c(NC(=O)c4ccc(N5CCN(C(=O)c6c[nH]cn6)C[C@H]5C)nc4)cc3C(F)(F)F)cc2)c[nH]1)C(C)C [Example 1-29] | D (D represents pEC50>10 (EC50<0.1 nM))
19 | CNC(=O)N1C[C@@H](C)N(c2ccc(C(=O)Nc3cc(OC(F)(F)F)c(-c4ccc(-c5c[nH]c([C@@H]6C[C@H](OC)CN6C(=O)[C@@H](NC(=O)OC)C6CCOCC6)n5)cc4)cc3Cl)cn2)C[C@@H]1C [Example 28-8] | D (D represents pEC50>10 (EC50<0.1 nM))
20 | COC(=O)N[C@H](C(=O)N1C[C@@H](C)C[C@H]1c1nc(-c2ccc(-c3cc(Cl)c(NC(=O)c4ccc(N5CCN(C(=O)C6CC6(Cl)Cl)C[C@H]5C)nc4)cc3OC(F)(F)F)cc2)c[nH]1)C(C)C (single isomer, unassigned) [Example 1-57] | D (D represents pEC50>10 (EC50<0.1 nM))
21 | COC(=O)N[C@H](C(=O)N1C[C@@H](C)C[C@H]1c1nc(-c2ccc(-c3ccc(NC(=O)c4ccc(N5CCN(C(=O)C6CC6)C[C@H]5C)nc4)cc3C(F)(F)F)cc2)c[nH]1)C(C)C [Example 1-65] | C (C represents pEC50 between and 9 and about 10, (EC50 between 1 nM and 0.1 nM))

same assay, conditions: Hepatitis C virus, read-out: Genotype 1a, HCV genotype 1a replicon

Row | SMILES | EC50
22 | COC(=O)N[C@H](C(=O)N1C[C@@H](C)C[C@H]1c1nc(-c2ccc(-c3cc(Cl)c(NC(=O)c4ccc(N5CCN(C(=O)C(C)(C)C)C[C@H]5C)nc4)cc3OC(F)(F)F)cc2)c[nH]1)C1C[C@@H](C)O[C@@H](C)C1 (stereo partly shown) [Example 13-42] | < 0.1 nM
23 | COCC(=O)N1CCC[C@@]1(C)C(=O)N1CCN(c2ccc(NC(=O)c3ccc(-c4ccc(-c5c[nH]c([C@@H]6CC(C)(C)CN6C(=O)[C@@H](NC(=O)OC)C(C)C)n5)cc4)c(OC(F)(F)F)c3)cn2)[C@H](C)C1 [Example 6-7] | < 0.1 nM
24 | COC(=O)N[C@H](C(=O)N1C[C@@H](C)C[C@H]1c1nc(-c2ccc(-c3cc(Cl)c(NC(=O)c4ccc(N5CCN(C(=O)C(C)(C)CN)C[C@H]5C)nc4)cc3OC(F)(F)F)cc2)c[nH]1)C(C)C [Example 12-36] | 10 to 1000 nM
25 | COC(=O)N[C@H](C(=O)N1[C@@H]2C[C@@H]2C[C@H]1c1nc(-c2ccc(-c3cc(Cl)c(NC(=O)c4ccc(N5CCN(C(=O)C6CC67CC7)C[C@H]5C)nc4)cc3C(F)(F)F)cc2)c[nH]1)C(C)C (stereo partly shown) [Example 8-6] | 0.1 to 1 nM
26 | COCC1(C(=O)N2CCN(c3ccc(C(=O)Nc4cc(OC(F)(F)F)c(-c5ccc(-c6c[nH]c([C@@H]7C[C@H](C)CN7C(=O)[C@@H](NC(=O)OC)C(C)C)n6)cc5)cc4Cl)cn3)[C@H](C)C2)CC1 [Example 12-44] | < 0.1 nM
27 | COC(=O)N(C)[C@H](C(=O)N1C[C@@H](C)C[C@H]1c1nc(-c2ccc(-c3cc(Cl)c(NC(=O)c4ccc(N5CCN(C(=O)C(C)(C)CO)C[C@H]5C)nc4)cc3OC(F)(F)F)cc2)c[nH]1)C(C)C [Example 13-45] | 0.1 to 1 nM
28 | COC(=O)N[C@H](C(=O)N1[C@H](c2nc(-c3ccc(-c4ccc(C(=O)Nc5ccc(N6CCN(C(=O)[C@]7(C)CCCN7C(=O)[C@@H](NC(=O)OC)C(C)C)C[C@H]6C)nc5)cc4OC(F)(F)F)cc3)c[nH]2)C[C@@H]2CCCC[C@@H]21)C(C)C [Example 6-14] | < 0.1 nM
29 | COC(=O)N[C@H](C(=O)N1C[C@@H](C)C[C@H]1c1nc(-c2ccc(-c3cc(Cl)c(NC(=O)c4ccc(N5CCN(C(=O)N(CCO)CCO)C[C@H]5C)nc4)cc3OC(F)(F)F)cc2)c[nH]1)C(C)C [Example 12-16] | 0.1 to 1 nM
30 | COC(=O)N[C@@H](CCCCN)C(=O)N1C[C@@H](C)C[C@H]1c1nc(-c2ccc(-c3cc(Cl)c(NC(=O)c4ccc(N5CCN(C(=O)C(C)(C)C)C[C@H]5C)nc4)cc3OC(F)(F)F)cc2)c[nH]1 [Example 13-33] | < 0.1 nM

system: HCV genotype 1b replicon; test: HCV genotype 1b replicon assay (Renilla luciferase readout); assay type: cell-based, hepatitis C virus; details: Hepatitis C virus, read-out: Genotype 1b
From the text: Assay 1: HCV Genotype 1b Replicon Assay
The HCV genotype 1b replicon cell line was obtained from Apath LLC (Brooklyn, N.Y.) (APC144; Huh7 cell background). This subgenomic replicon contains the N-terminus of the HCV core protein fused to the neomycin-resistance selectable marker. The EMCV IRES lies downstream and drives expression of humanized Renilla luciferase fused to the non-structural proteins NS3-NS5B. This cell line was used to determine compound potency using the luciferase activity readout as a measurement of compound inhibition of replicon levels.
Cells were grown at 37° C. in a 5% CO2 humidified incubator in DMEM (Invitrogen) with 10% FBS (HyClone), 1×NEAA (Invitrogen), 1× Pen-Strep (Invitrogen), and 500 μg/mL G418 (Invitrogen). On day 1 of the assay, cells were plated at 10,000 cells/well in white 96-well tissue culture plates (Costar) in 200 μL media lacking G418. Four hours later, once the cells have adhered, the media was removed and replaced with media (no G418) containing dose-responses of test compounds. Compounds were initially diluted in DMSO and then diluted another 200× in media to bring the final DMSO concentration down to 0.5%. The cells were incubated with test compounds for 48 hours. At the end of the incubation period, media and compound were removed from the plates and the luciferase activity was determined using Promega Renilla-Glo reagents.
To analyze the data, the luciferase activity was plotted vs. the compound concentration, and EC50 values were determined from a 4-parameter robust fit model with the GraphPad Prism software package (GraphPad Software, Inc., San Diego, Calif.). Results are expressed as the negative decadic logarithm of the EC50 value, pEC50.
Test compounds having a higher pEC50 value in this assay show greater inhibition of HCV genotype 1b replication.

Row | SMILES | EC50
31 | COC(=O)N[C@H](C(=O)N1C[C@@H](C)C[C@H]1c1nc(-c2ccc(-c3cc(Cl)c(NC(=O)c4ccc(N5CCN(C(=O)C(C)(C)C)C[C@H]5C)nc4)cc3OC(F)(F)F)cc2)c[nH]1)C1C[C@@H](C)O[C@@H](C)C1 (stereo partly shown) [Example 13-42] | < 0.1 nM

— patent US9212168B2 (priority 2011, dated 2015)
